Laboratory results reported in patent US6525001B1, “Substituted pyrimidine and pyridine herbicides” (Mid-American Commercialization Corporation, priority 1997, dated 2003).

Key:
Assay type in all cases: in vivo
Design in all cases: key: 0 is no effect; 10 is complete control
[1] = tested on: corn (Zea mays); experiment: Test B pre-/postemergence
Method in brief: (§1)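 Compounds in a surfactant-containing, non-phytotoxic solvent blend are applied to freshly planted seed (preemergence) and, concurrently, to seedlings of 2 to 18 cm at 1–4 leaves (postemergence). Plants stay in the greenhouse twelve to sixteen days and are then scored visually from 0 (no effect) to 10 (complete control).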

[2] = tested on: bedstraw (Galium aparine); experiment: Test B pre-/postemergence; details: Postemergence
Method in brief: as §1

[3] = tested on: velvetleaf (Abutilon theophrasti); experiment: Test B pre-/postemergence
Method in brief: as §1

[4] = tested on: wild oat (Avena fatua); experiment: Test B pre-/postemergence
Method in brief: as §1

[5] = tested on: wheat (Triticum aestivum); experiment: Test B pre-/postemergence
Method in brief: as §1

[6] = tested on: pigweed (Amaranthus retroflexus); experiment: Test B pre-/postemergence
Method in brief: as §1

[7] = tested on: crabgrass (Digitaria sanguinalis); experiment: Test B pre-/postemergence
Method in brief: as §1

[8] = tested on: rape (Brassica napus); experiment: Test B pre-/postemergence
Method in brief: as §1

[9] = tested on: blackgrass (Alopecurus myosuroides); experiment: Test B pre-/postemergence
Method in brief: as §1

[10] = tested on: momingglory (Ipomoea hederacea); experiment: Test B pre-/postemergence
Method in brief: as §1

[11] = tested on: soybean (Glycine max); experiment: Test B pre-/postemergence
Method in brief: as §1

[12] = tested on: broadleaf signalgrass (Brachiaria decumbens); experiment: Test B pre-/postemergence
Method in brief: as §1

[13] = tested on: cocklebur (Xanthium strumarium); experiment: Test B pre-/postemergence
Method in brief: as §1

[14] = tested on: giant foxtail (Setaria faberii); experiment: Test B pre-/postemergence
Method in brief: as §1

[15] = tested on: sugar beet (Beta vulgaris); experiment: Test B pre-/postemergence
Method in brief: as §1

[16] = tested on: purple nutsedge (Cyperus rotundus); experiment: Test B pre-/postemergence; details: Preemergence
Method in brief: as §1

[17] = tested on: duck salad (Heteranthera limosa); experiment: Test B flood test
Method in brief: (§2)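 Read-out is a visual response score from 0 (no effect) to 10 (complete control), assigned by comparison with untreated controls. Treatment was applied at the 2-leaf stage, and plants stayed in the greenhouse for twelve to sixteen days before scoring.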

[18] = tested on: bamyardgrass (Echinochloa crus-galli); experiment: Test B flood test
Method in brief: as §2

[19] = tested on: rice (Oryza sativa); experiment: Test B flood test
Method in brief: as §2

[20] = tested on: smallflower flatsedge (Cyperus difformis); experiment: Test B flood test
Method in brief: as §2

[21] = Preemergence, Rate 62 g/ha, scale of 0 to 10
[22] = Rate 62 g/ha, Postemergence (flood test)
[23] = Rate 125 g/ha, Postemergence section (flood test species)
[24] = Rate 250 g/ha, Postemergence (flood test species)

Compound: O=C(c1cccc(C(F)(F)F)c1)c1ccnc(-c2ccc(F)cc2F)n1 [Compound 76]
- Plant response rating, Corn [1, 21]: 0
- Corn plant response rating ([1]; Rate 62 g/ha, Postemergence): 1
- Corn plant response rating ([1]; Rate 125 g/ha, Postemergence): 1
- Plant response rating, Corn ([1]; Rate 125 g/ha, Preemergence): 0
- Plant response rating, Corn ([1]; Rate 250 g/ha, Postemergence): 1
- Plant response rating, Corn ([1]; Rate 250 g/ha, Preemergence): 0
- Bedstraw plant response rating ([2]; Rate 62 g/ha): 0
- Bedstraw plant response rating ([2]; Rate 125 g/ha): 0
- Plant response rating, Bedstraw ([2]; Rate 250 g/ha): 0
- Plant response rating, Velvetleaf [3, 21]: 0
- Velvetleaf plant response rating ([3]; Rate 62 g/ha, Postemergence): 0
- Velvetleaf plant response rating ([3]; Rate 125 g/ha, Postemergence): 1
- Plant response rating, Velvetleaf ([3]; Rate 125 g/ha, Preemergence): 0
- Plant response rating, Velvetleaf ([3]; Rate 250 g/ha, Postemergence): 1
- Plant response rating, Velvetleaf ([3]; Rate 250 g/ha, Preemergence): 0
- Plant response rating, Wild oats [4, 21]: 0
- Wild oats plant response rating ([4]; Rate 62 g/ha, Postemergence): 0
- Wild oats plant response rating ([4]; Rate 125 g/ha, Postemergence): 0
- Plant response rating, Wild oats ([4]; Rate 125 g/ha, Preemergence): 0
- Plant response rating, Wild oats ([4]; Rate 250 g/ha, Postemergence): 0
- Plant response rating, Wild oats ([4]; Rate 250 g/ha, Preemergence): 0
- Plant response rating, Wheat [5, 21]: 0
- Wheat plant response rating ([5]; Rate 62 g/ha, Postemergence): 0
- Wheat plant response rating ([5]; Rate 125 g/ha, Postemergence): 0
- Plant response rating, Wheat ([5]; Rate 125 g/ha, Preemergence): 0
- Plant response rating, Wheat ([5]; Rate 250 g/ha, Postemergence): 0
- Plant response rating, Wheat ([5]; Rate 250 g/ha, Preemergence): 0
- Plant response rating, Redroot pigweed [6, 21]: 0
- Redroot pigweed plant response rating ([6]; Rate 62 g/ha, Postemergence): 1
- Redroot pigweed plant response rating ([6]; Rate 125 g/ha, Postemergence): 1
- Plant response rating, Redroot pigweed ([6]; Rate 125 g/ha, Preemergence): 0
- Plant response rating, Redroot pigweed ([6]; Rate 250 g/ha, Postemergence): 2
- Plant response rating, Redroot pigweed ([6]; Rate 250 g/ha, Preemergence): 0
- Plant response rating, Crabgrass [7, 21]: 0
- Crabgrass plant response rating ([7]; Rate 62 g/ha, Postemergence): 0
- Crabgrass plant response rating ([7]; Rate 125 g/ha, Postemergence): 0
- Plant response rating, Crabgrass ([7]; Rate 125 g/ha, Preemergence): 0
- Plant response rating, Crabgrass ([7]; Rate 250 g/ha, Postemergence): 1
- Plant response rating, Crabgrass ([7]; Rate 250 g/ha, Preemergence): 0
- Plant response rating, Rape [8, 21]: 0
- Rape plant response rating ([8]; Rate 62 g/ha, Postemergence): 1
- Rape plant response rating ([8]; Rate 125 g/ha, Postemergence): 2
- Plant response rating, Rape ([8]; Rate 125 g/ha, Preemergence): 0
- Plant response rating, Rape ([8]; Rate 250 g/ha, Postemergence): 2
- Plant response rating, Rape ([8]; Rate 250 g/ha, Preemergence): 0
- Plant response rating, Blackgrass [9, 21]: 0
- Blackgrass plant response rating ([9]; Rate 62 g/ha, Postemergence): 0
- Blackgrass plant response rating ([9]; Rate 125 g/ha, Postemergence): 0
- Plant response rating, Blackgrass ([9]; Rate 125 g/ha, Preemergence): 0
- Plant response rating, Blackgrass ([9]; Rate 250 g/ha, Postemergence): 0
- Plant response rating, Blackgrass ([9]; Rate 250 g/ha, Preemergence): 0
- Plant response rating, Morningglory [10, 21]: 0
- Morningglory plant response rating ([10]; Rate 62 g/ha, Postemergence): 0
- Morningglory plant response rating ([10]; Rate 125 g/ha, Postemergence): 0
- Plant response rating, Morningglory ([10]; Rate 125 g/ha, Preemergence): 0
- Plant response rating, Morningglory ([10]; Rate 250 g/ha, Postemergence): 1
- Plant response rating, Morningglory ([10]; Rate 250 g/ha, Preemergence): 0
- Plant response rating, Soybean [11, 21]: 0
- Soybean plant response rating ([11]; Rate 62 g/ha, Postemergence): 0
- Soybean plant response rating ([11]; Rate 125 g/ha, Postemergence): 0
- Plant response rating, Soybean ([11]; Rate 125 g/ha, Preemergence): 0
- Plant response rating, Soybean ([11]; Rate 250 g/ha, Postemergence): 1
- Plant response rating, Soybean ([11]; Rate 250 g/ha, Preemergence): 0
- B. signalgrass plant response rating ([12]; Rate 62 g/ha, Postemergence): 0
- B. signalgrass plant response rating ([12]; Rate 62 g/ha, Preemergence): 0
- B. signalgrass plant response rating ([12]; Rate 125 g/ha, Postemergence): 0
- Plant response rating, B. signalgrass ([12]; Rate 125 g/ha, Preemergence): 0
- Plant response rating, B. signalgrass ([12]; Rate 250 g/ha, Postemergence): 0
- Plant response rating, B. signalgrass ([12]; Rate 250 g/ha, Preemergence): 0
- Plant response rating, Cocklebur [13, 21]: 0
- Cocklebur plant response rating ([13]; Rate 62 g/ha, Postemergence): 1
- Cocklebur plant response rating ([13]; Rate 125 g/ha, Postemergence): 3
- Plant response rating, Cocklebur ([13]; Rate 125 g/ha, Preemergence): 0
- Plant response rating, Cocklebur ([13]; Rate 250 g/ha, Postemergence): 4
- Plant response rating, Cocklebur ([13]; Rate 250 g/ha, Preemergence): 0
- Plant response rating, Giant foxtail [14, 21]: 0
- Giant foxtail plant response rating ([14]; Rate 62 g/ha, Postemergence): 0
- Giant foxtail plant response rating ([14]; Rate 125 g/ha, Postemergence): 0
- Plant response rating, Giant foxtail ([14]; Rate 125 g/ha, Preemergence): 0
- Plant response rating, Giant foxtail ([14]; Rate 250 g/ha, Postemergence): 1
- Plant response rating, Giant foxtail ([14]; Rate 250 g/ha, Preemergence): 0
- Plant response rating, Sugarbeets [15, 21]: 0
- Sugarbeets plant response rating ([15]; Rate 62 g/ha, Postemergence): 1
- Sugarbeets plant response rating ([15]; Rate 125 g/ha, Postemergence): 2
- Plant response rating, Sugarbeets ([15]; Rate 125 g/ha, Preemergence): 0
- Plant response rating, Sugarbeets ([15]; Rate 250 g/ha, Postemergence): 3
- Plant response rating, Sugarbeets ([15]; Rate 250 g/ha, Preemergence): 0
- Plant response rating, Nutsedge ([16]; Rate 62 g/ha, scale of 0 to 10): 0
- Plant response rating, Nutsedge ([16]; Rate 125 g/ha): 0
- Ducksalad plant response rating [17, 22]: 0
- Ducksalad plant response rating [17, 23]: 0
- Plant response rating, Ducksalad [17, 24]: 0
- Barnyardgrass plant response rating [18, 22]: 0
- Barnyardgrass plant response rating [18, 23]: 0
- Plant response rating, Barnyardgrass [18, 24]: 0
- Rice plant response rating [19, 22]: 0
- Rice plant response rating [19, 23]: 0
- Plant response rating, Rice [19, 24]: 0
- S. Flatsedge plant response rating [20, 22]: 0
- S. Flatsedge plant response rating [20, 23]: 0
- Plant response rating, S. Flatsedge [20, 24]: 0
